Experimental findings from US11542246B2, “Quinoline compounds as IRAK inhibitors and uses thereof” (Merck Patent GmbH, priority 2018, dated 2023) are described below.

Assay [1] addresses IRAK1 (Homo sapiens (Human), UniProt P51617). As to the kind of experiment: IRAK1 Enzymatic Assay. In kind it is biochemical. The note with it: His-TEV-IRAK1 (194-712), ATP 1 μM, 3 hours at 30° C. On the procedure: IRAK1 is a human purified recombinant enzyme (His-TEV-IRAK1 (194-712)). In this assay, IRAK-1 hydrolyses ATP and autophosphorylates. Measurement of IRAK-1 inhibition was performed in streptavidin coated 384 well FlashPlate (PerkinElmer #SMP410A). His-TEV-IRAK-1 (15 ng/well), ATP (1 μM, [33P]ATP 0.25 μCi/well) and compounds in DMSO (range of concentrations from 20 μM to 1 nM) or controls (2% DMSO) were incubated for 3 hours at 30° C. in assay buffer: Hepes pH7.0 50 mM, Fatty acid-free BSA 0.1%, Dithiothreitol DTT 2 mM, MgCl2 10 mM, EGTA 0.5 mM, Triton-X-100 0.01%. Kinase reaction was stopped by addition of EDTA. Supernatant was discarded, plates were washed three times with 150 mM NaCl and radioactivity was then measured in a Microbeta Trilux reader.

Assay [2] concerns TLR7 induced IL-6 secretion in human mononuclear cells (PBMC's). The assay can be described thus: TLR7 induced IL-6 in Human PBMC's. Type of assay: cell-based. Particulars: TLR7 specific ligand 2 uM overnight, IL-6 Alpha LISA. As to the method: TLR7 induced IL-6 in Human PBMC's
Human PBMC assay was used as one of the functional assays to monitor the activity of IRAK1 and IRAK4 small molecule inhibitors on TLR7 induced IL-6 secretion in human mononuclear cells (PBMC's). Human PBMCs were prepared from buffy coats (whole blood enriched with leukocytes and platelets) obtained from healthy volunteers used either fresh or frozen are plated in assay media (RPMI+2% P/S/L-glu+10% HI-FBS) and pre-treated with compounds in DMSO/media (range of concentrations from 25 uM to 0.4 nM) or controls (0.25% DMSO) for 30 minutes at 37° C. in assay media. Following pre-treatment with IRAK1 and IRAK4 inhibitors, PBMC's were stimulated with TLR7 specific ligand (2 uM) overnight (16-18 hrs) at 37° C. After incubation supernatant was transferred to 384 well PE AlphaPlate-384 (6005350) and IL-6 is quantified using Perkin Elmer IL-6 Alpha LISA kit (AL223C). Plates were read on an Envision® plate reader with Alpha Technology®.
In general terms: Alpha assays give light when donor and acceptor beads are brought close together.

Assay [3] addresses IRAK4 (Homo sapiens, UniProt Q9NWZ3). The assay can be described thus: IRAK4 Enzymatic Assay. In kind it is biochemical. Particulars: His-TEV-IRAK4, ATP 2 μM, STK1-biotin peptide 300 nM, 3 hours at 30° C. On the procedure:
IRAK4 Enzymatic Assay IRAK4 is a human purified recombinant enzyme ([…]. IRAK4 hydrolyses ATP, autophosphorylates and phosphorylates a Serine/Threonine generic peptidic substrate (STK: 61ST1BLC from CisBio International based in Bagnols/Cèze FR). Measurement of IRAK-4 inhibition was performed in streptavidin coated 384 well FlashPlate (PerkinElmer #SM[…]). His-TEV-IRAK4 (20 ng/well), ATP (2 μM, [^33P]ATP 0.25 μCi/well), STK1-biotin peptide (300 nM) and compounds in DMSO (range of concentrations from 20 μM to 1 nM) or controls (2% DMSO) were incubated for 3 hours at 30° C. in assay buffer: Hepes pH7.0 50 mM, Fatty acid-free BSA 0.1%, Dithiothreitol DTT 2 mM, MgCl2 10 mM, EGTA 0.5 mM, Tween-20 0.01%, MnCl2 5 mM. Kinase reaction was stopped by addition of EDTA.

Sequence of IRAK4 (Q9NWZ3 whole entry, looked up): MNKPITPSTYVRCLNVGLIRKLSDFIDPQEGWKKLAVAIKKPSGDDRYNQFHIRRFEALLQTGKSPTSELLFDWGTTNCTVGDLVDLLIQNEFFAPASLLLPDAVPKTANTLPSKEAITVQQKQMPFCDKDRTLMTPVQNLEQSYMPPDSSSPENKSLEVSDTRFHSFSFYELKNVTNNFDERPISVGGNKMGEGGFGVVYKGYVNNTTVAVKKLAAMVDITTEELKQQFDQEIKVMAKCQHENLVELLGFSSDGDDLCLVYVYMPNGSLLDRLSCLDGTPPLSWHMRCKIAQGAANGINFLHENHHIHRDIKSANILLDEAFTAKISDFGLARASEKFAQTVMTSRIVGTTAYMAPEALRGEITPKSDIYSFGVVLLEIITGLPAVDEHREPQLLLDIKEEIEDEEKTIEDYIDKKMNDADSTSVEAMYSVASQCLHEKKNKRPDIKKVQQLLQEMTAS
Sequence of IRAK1 (P51617 194-712): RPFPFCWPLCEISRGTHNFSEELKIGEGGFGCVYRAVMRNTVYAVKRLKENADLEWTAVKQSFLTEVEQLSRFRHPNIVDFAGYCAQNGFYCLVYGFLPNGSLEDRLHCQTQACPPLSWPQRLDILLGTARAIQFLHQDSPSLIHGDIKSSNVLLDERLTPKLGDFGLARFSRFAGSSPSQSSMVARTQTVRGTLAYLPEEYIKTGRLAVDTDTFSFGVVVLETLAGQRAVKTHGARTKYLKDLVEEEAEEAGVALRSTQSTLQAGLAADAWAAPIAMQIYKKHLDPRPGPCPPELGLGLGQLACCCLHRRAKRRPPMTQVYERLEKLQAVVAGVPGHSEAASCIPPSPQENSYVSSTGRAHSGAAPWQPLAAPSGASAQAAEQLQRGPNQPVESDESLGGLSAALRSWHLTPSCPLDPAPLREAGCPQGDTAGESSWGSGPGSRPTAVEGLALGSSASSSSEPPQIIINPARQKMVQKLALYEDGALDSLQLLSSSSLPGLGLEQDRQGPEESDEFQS

The term IC50 denotes the concentration needed to halve the response being measured. Read a low IC50 as higher potency. For `COc1nc2c(OCC3CCC(=O)N3)cccc2cc1C(N)=O` (stereo not shown) [Compound 1, 2-Methoxy-8-(5-oxo-pyrrolidin-2-ylmethoxy)-quinoline-3-carboxylic acid amide], the IC50 in assay [1] is > 5000 nM; in assay [2], < 500 nM; in assay [3], < 100 nM.
For the molecule `COc1cc2c(OCC3CCC(=O)N3)cccc2nc1C(N)=O` (stereo not shown) [Compound 2, 3-Methoxy-5-(5-oxo-pyrrolidin-2-ylmethoxy)-quinoline-2-carboxylic acid amide], the IC50 in assay [1] is > 5000 nM; in assay [3], 100 to 1000 nM.
Turning to `COc1nc2c(OC[C@@H]3CCC(=O)N3)cccc2cc1C(N)=O` [Compound 3, 2-Methoxy-8-((S)-5-oxo-pyrrolidin-2-ylmethoxy)-quinoline-3-carboxylic acid amide], the half-inhibitory concentration (IC50) was 1000 to 5000 nM in assay [1], < 500 nM in assay [2] and < 100 nM in assay [3].
In the same order, the values of `CC[C@@H]1[C@H](F)C(=O)N[C@@H]1COc1cccc2cc(C(N)=O)c(OC)nc12` [Compound 4, 8-((2S,3S,4S)-3-Ethyl-4-fluoro-5-oxo-pyrrolidin-2-ylmethoxy)-2-methoxy-quinoline-3-carboxylic acid amide] are 100 to 1000 nM, < 500 nM and < 100 nM.
For the molecule `COc1nc2c(OC[C@@H]3CC(F)(F)C(=O)N3)cccc2cc1C(N)=O` [Compound 5, 8-((S)-4,4-Difluoro-5-oxo-pyrrolidin-2-ylmethoxy)-2-methoxy-quinoline-3-carboxylic acid amide], the IC50 is 1000 to 5000 nM in assay [1], < 500 nM in assay [2] and < 100 nM in assay [3].
`CC[C@@H]1[C@H](F)C(=O)N[C@@H]1COc1nccc2cc(C(N)=O)c(OC)nc12` [Compound 6, 8-((2S,3S,4S)-3-Ethyl-4-fluoro-5-oxo-pyrrolidin-2-ylmethoxy)-2-methoxy-[1,7]naphthyridine-3-carboxylic acid amide]: the IC50 in assay [1] was 1000 to 5000 nM; in assay [3], < 100 nM.
